The values that follow come from US8841325B2, “Immunomodulatory compounds for the restoration of vitamin D sensitivity in vitamin D resistant tumor cells” (Celgene Corporation, priority 2009, dated 2014).

One assay has as its system HBL-100 cells. The experiment in a line: BCL-2 expression by immunoblotting, HBL-100. It counts as cell-based. To be noted: 1 μM lenalidomide and 100 nM 1,25-D3 alone or in combination, 6 days, FIG. 15. The method, then: It has been shown in this paper that BCL-2 inhibition of expression seems to be a key event for the restoration of a sensitive vitamin D sensitive phenotype in MDA-MB-231. […] Cells were also treated with 0.1% DMSO as a control. Whole cells extracts were prepared and analysed by immuoblotting BCL-2 antibody. β-actin was used as a loading control.
More particularly, FIG. 15 illustrates the effects of co-treatment lenalidomide/1, 25-D3 on BCL-2 expression in MCF-7VDR and HBL-100 cells. MCF-7/VDR and HBL-100 cells were treated for up to 6 days with 1 μM lenalidomide and 100 nM 1, 25-D3 alone or in combination. Cells were also treated with 0.1% DMSO a control. Whole proteins were extracted and probes for BCL-2. β-actin was used as a loading control. Representative blots for the three experiments are shown.

The next assay deals with breast cancer cell lines. Conditions: literature (Colston et al.); cited from earlier work.
Assay [1] deals with MCF-7/VD^R cells. The assay can be described thus: BCL-2 expression by immunoblotting, MCF-7/VD^R. The format is cell-based. Conditions: 1 μM lenalidomide and 100 nM 1,25-D3 alone or in combination, 6 days, FIG. 15. The method, then: Cells were also treated with 0.1% DMSO as a control. Whole cells extracts were prepared and analysed by immuoblotting BCL-2 antibody. β-actin was used as a loading control.
Cells were also treated with 0.1% DMSO a control. Whole proteins were extracted and probes for BCL-2. β-actin was used as a loading control.
Background: A western blot detects proteins with antibodies after separation by electrophoresis.

The test system of a further assay is MDA-MB-231 cells. The assay can be described thus: Western blot of key signalling proteins (AKT, ERK1/2, VDR). It counts as cell-based. To be noted: 1 μM lenalidomide co-treatment with 100 nM 1,25-D3, 6 days. The method, then: More particularly, FIG. 11 illustrates the effects of co-treatment lenalidomide/1, 25-D3 on expression of key signalling proteins in MDA-MB-231 cells. […] Cells were also treated with 0.1% DMSO as a control. Whole proteins were extracted and probed for total AKT (T-AKT), phosphor-AKT (P-AKT), total ERK1/2 (T-ERK1/2), phospho-ERK1/2 (P-ERK1/2), phosphor-p38 and total p38, VDR and b-actin as a house-keeping protein. Representative blots for the three experiments are shown.

In assay [2] the test system is MCF-7/VD^R cells. The experiment in a line: Cell viability by neutral red assay, MCF-7/VD^R. The format is cell-based. To be noted: up to 6 days.
Description: (§1) Non-treated cells were used as a control.
as §1

For `C=C1/C(=C\C=C2/CCC[C@]3(C)[C@@H]([C@H](C)CCCC(C)(C)O)CC[C@@H]23)C[C@@H](O)C[C@@H]1O` [1,25-D3, 1α,25-dihydroxyvitamin D3], the “effects on BCL-2 expression” value in the assay with HBL-100 cells was “no effects”. Besides, the IC50 values result with breast cancer cell lines is “in the nM region”.
With `Nc1cccc2c1CN(C1CCC(=O)NC1=O)C2=O` (stereo not shown) [Lenalidomide, 1-oxo-2-(2,6-dioxopiperidin-3-yl)-4-aminoisoindoline], the “effects on BCL-2 expression” value with MCF-7/VD^R cells [1] and in the assay on HBL-100 cells was “no effects” each time. Further, the “AKT and ERK1/2 activation and VDR protein expression” value with MDA-MB-231 cells is reported as “No Effect”. For the same molecule, the differences in viability result in the assay with MCF-7/VD^R cells [2] (lenalidomide 0 μM up to 10 μM, FIG. 13, p>0.05) is reported as “No significant differences”; in the assay with MCF-7/VD^R cells [2] (lenalidomide 0.01-1 μM alone or in combination with 1,25-D3 0-1000 nM, FIG. 14, p>0.05), “No significant differences”.
